{"source": "patent US11771707B2", "about": "“Pharmaceutical compositions and uses thereof” (SpineThera, priority 2016, dated 2023)", "key": {"[1]": {"conditions": "brain; cited from earlier work"}, "[2]": {"test": "in vitro release of dexamethasone acetate from microspheres", "type": "physicochemical", "method": "The microspheres, and compositions comprising those microspheres, of the various embodiments described herein are analyzed using USP methods known in the art to determine, among other things, the pH of the compositions, the in vitro release of API, and the impurities present. […] Without wishing to be bound by theory, it can be reasonably expected that dexamethasone acetate will release continuously over about 84 days in vitro, with about 20% of the drug released in 3 days, 50% in 25 days, and 90% in 60 days. It will be understood that the release profile may be adjusted by one or more of the following, including combinations: increasing or decreasing drug to polymer ratio; increasing or decreasing polymer molecular weight; increasing or decreasing particle size; increasing or decreasing polymer degradation time (by decreasing or increasing glycolic acid content); or increasing or decreasing hydrophilicity of microsphere surface."}, "[3]": {"test": "in vitro release in 1% C-TAB buffer at pH 3.5", "type": "physicochemical", "excerpt": "Without wishing to be bound by theory, pharmaceutical compositions of the type described herein are not expected to elicit any significant or appreciable degree of inflammatory response or cause necrosis. Histological examination may reveal the microspheres to be localized and agglomerated within the epidural space at the site of injection with no evidence of the presence of the injection vehicle after about 2 days. Contents of the treated epidural pocket can be recovered by dissection. It can be reasonably expected that dexamethasone acetate will be released continuously over approximately 45 days under in vitro conditions of 1% C-TAB buffer at pH 3.5, with <20% of the drug released in 1 day, 30-60% in 7 days, 60-85% in 28 days and not less than 85% in 45 days, with complete microsphere polymer degradation in about 16 weeks/112 days."}}}
{"smiles": "CC(=O)OCC(=O)[C@@]1(O)[C@H](C)C[C@H]2[C@@H]3CCC4=CC(=O)C=C[C@]4(C)[C@@]3(F)[C@@H](O)C[C@@]21C", "note": "[dexamethasone acetate, 9 alpha-fluoro-11-beta, 17-alpha, 21-trihydroxy-16 alpha-methylpregna-1,4-diene-3,20-dione 21-acetate]", "values": [{"measurement": "anti-inflammatory effect and tissue water content", "setting": "[1]", "result": "anti-inflammatory effect in the brain without reducing tissue water content"}, {"measurement": "period of continuous release", "setting": "[2]", "result": "about 84 days"}, {"measurement": "drug released", "setting": "[2]; in 3 days", "result": "about 20%"}, {"measurement": "drug released", "setting": "[2]; in 25 days", "result": "~50", "unit": "%"}, {"measurement": "drug released", "setting": "[2]; in 60 days", "result": "~90", "unit": "%"}, {"measurement": "period of continuous release", "setting": "[3]; 1% C-TAB buffer pH 3.5", "result": "approximately 45 days"}, {"measurement": "drug released", "setting": "[3]; 1% C-TAB buffer pH 3.5, in 1 day", "result": "< 20", "unit": "%"}, {"measurement": "drug released", "setting": "[3]; 1% C-TAB buffer pH 3.5, in 7 days", "result": "30-60%"}, {"measurement": "drug released", "setting": "[3]; 1% C-TAB buffer pH 3.5, in 28 days", "result": "60-85%"}, {"measurement": "drug released", "setting": "[3]; 1% C-TAB buffer pH 3.5, in 45 days", "result": "not less than 85%"}]}
